Experimental data taken from US20080027139A1, “Use of Alpha-Ketoglutarate and Related Compounds” (priority 2004, published 2008).
Like-named read-outs stand apart in the source and are kept apart here.

Legend:
[1] = tested on: sham-operated (SHO) and ovariectomized (OVX) Wistar female rats
Method: A study was conducted on Wistar female rats kept in standard weather conditions. […] Afterwards the female rates were randomly divided into 2 groups: ovariectomy were performed in all animals in group one (OVX) and placebo operation were done in the second group (SHO). Surgical procedures were performed under general anesthesia (rometare, ketamine and atropine in doses 2, 10 and 0.05 mg/kg of bodily weight respectively.
Studies were conducted on the animals from the two groups: females received experimental solutions from the seventh day following the operation (simulation of the first period of the lack of activity of the ovarian hormones) (Experiment I 1), females aged 7 months with a 5 month period in which there was no activity of hormonal ovaries (simulation of the period with a prolonged absence of the activity of ovarian hormones) (Experiment I 2) (Tab. 2).
In each of Experiments I1 and I2 40 animals was used for each experimental doses making a total of 240 animals.
Blood samples were collected immediately after slaughter, and the plasma removed by centrifugation was stored in a safe place for further biochemical analyses.
The entire cholesterol concentration was determined by means of commonly available analytical equipment using the spectrophotometric method.

[2] = tested on: volunteers with a relatively high level of cholesterol
Source text: The experiment lasted for the total of 42 days. […] During the experiment no quantitative or qualitative restrictions regarding the diet were introduced. In the period from day 1 to day 28 the patients' lipid profile was checked every seven days in order to determine the concentration of cholesterol, fractions of LDL and HDL and triglycerides. […] Subsequent measurements of the lipid profile were taken on 42nd day of the experiment.

[3] = tested on: Wistar rats with diet-induced hypercholesterolaemia; conditions: day 120; AKG doses 0.1 and 1 from day 61 for 60 days; p<0.05
Source text: Afterwards all animals received fodder enriched with 1% cholesterol (Sigma-Aldrich, Germany) and 10% lard in order to obtain hypercholesterolaemia. • 12 rats (6 females and 6 males) were killed on day 0 as an introduction control. • 12 rats (6 females and 6 males) were killed at day 30. • 12 rats (6 females and 6 males) were killed at day 60.
Remaining 48 rats were divided into 3 groups and the experiment continued for another 60 days on cholesteremic diet: • 1. Placebo group—24 rats (12 females and 12 males) • 2. 1 g AKG group—12 rats (6 females and 6 males) • 3. 0.1 g AKG group—12 rats (6 females and 6 males)
During the first 60 days of using cholesterol and lard enriched diet, the lipid profile was checked three times to determine the concentration of the entire cholesterol, the fraction of LDL and HDL and triglycerides. Measuring tests were performed a day before the said diet was commenced (day 0) and subsequently after 30 and 60 days of the application of the said diet. On the sixty first day of the experiment animals were divided into two groups: one receiving the placebo solution and the other receiving AKG solution (AKG in doses 0.1 and 1 (Table 9). All the time animals continued to receive experimental fodder. During the period when placebo and AKG solutions were administered, the lipid profile was checked on the 120th day of the experiment. […]

[4] = Volunteer 1, 1st week, chewable tablets of 1.28 g calcium alpha-ketoglutarate (1 g AKG), two tablets three times a day, day 1-28
[5] = Volunteer 1, 2nd week, calcium alpha-ketoglutarate tablets (1 g AKG), two tablets three times a day
[6] = Volunteer 1, 3rd week, calcium alpha-ketoglutarate tablets (1 g AKG), two tablets three times a day
[7] = Volunteer 1, 4th week, calcium alpha-ketoglutarate tablets (1 g AKG), two tablets three times a day
[8] = Volunteer 1, 6th week, after 2 weeks without AKG
[9] = Volunteer 2, 1st week, chewable tablets of 1.28 g calcium alpha-ketoglutarate (1 g AKG), two tablets three times a day, day 1-28
[10] = Volunteer 2, 2nd week, calcium alpha-ketoglutarate tablets (1 g AKG), two tablets three times a day
[11] = Volunteer 2, 3rd week, calcium alpha-ketoglutarate tablets (1 g AKG), two tablets three times a day
[12] = Volunteer 2, 4th week, calcium alpha-ketoglutarate tablets (1 g AKG), two tablets three times a day
[13] = Volunteer 2, 6th week, after 2 weeks without AKG
[14] = two volunteers, after a 14 day break in administering the preparation

O=C(O)CCC(=O)C(=O)O [AKG, alpha-ketoglutaric acid]
effect on concentration of the entire cholesterol (in words) ([1]; OVX females, AKG dose 0.01 during 60 days, Experiment I-1, p=0.04, reaching the level of the control group): statically significant decrease
effect on concentration of the entire cholesterol (in words) ([1]; both doses 0.01 and 0.1, OVX and SHO groups, Experiment I-2 (prolonged lack of ovarian hormones)): statistically significant decrease
effect on concentration of the entire cholesterol (in words) ([1]; dose 1, females after ovariectomy relative to the control group, long-term absence of ovarian hormones (Experiment I-2)): decreased
effect on concentration of the entire cholesterol (in words) ([1]; dose 1, females after ovariectomy relative to the control group, short-term absence of ovarian hormones (Experiment I-1)): decreased
HDL level [2, 4]: 45 mg/dL
Total cholesterol level [2, 4]: 194 mg/dL
Triglycerides level [2, 4]: 197 mg/dL
HDL level [2, 5]: 41 mg/dL
Total cholesterol level [2, 5]: 196 mg/dL
Triglycerides level [2, 5]: 304 mg/dL
HDL level [2, 6]: 42 mg/dL
Total cholesterol level [2, 6]: 171 mg/dL
Triglycerides level [2, 6]: 269 mg/dL
HDL level [2, 7]: 48 mg/dL
Total cholesterol level [2, 7]: 157 mg/dL
Triglycerides level [2, 7]: 259 mg/dL
HDL level [2, 8]: 33 mg/dL
Total cholesterol level [2, 8]: 197 mg/dL
Triglycerides level [2, 8]: 375 mg/dL
HDL level [2, 9]: 35 mg/dL
Total cholesterol level [2, 9]: 190 mg/dL
Triglycerides level [2, 9]: 122 mg/dL
HDL level [2, 10]: 44 mg/dL
Total cholesterol level [2, 10]: 213 mg/dL
Triglycerides level [2, 10]: 101 mg/dL
HDL level [2, 11]: 40 mg/dL
Total cholesterol level [2, 11]: 199 mg/dL
Triglycerides level [2, 11]: 199 mg/dL
HDL level [2, 12]: 42 mg/dL
Total cholesterol level [2, 12]: 189 mg/dL
Triglycerides level [2, 12]: 187 mg/dL
HDL level [2, 13]: 40 mg/dL
Total cholesterol level [2, 13]: 215 mg/dL
Triglycerides level [2, 13]: 220 mg/dL
effect on concentration of HDL (in words) ([2]; two volunteers, 28 days of tablets containing 1 g of AKG, 2 tablets 3 times a day): No significant effect
effect on concentration of the entire cholesterol (in words) ([2]; two volunteers, after 28 days of tablets containing 1 g of AKG, 2 tablets 3 times a day): decrease
change of concentration of HDL fraction after stopping (in words) [2, 14]: statistically significant decrease
change of concentration of the entire cholesterol after stopping (in words) [2, 14]: increased
change of concentration of triglycerides after stopping (in words) [2, 14]: significant increase
effect on concentration of triglycerides (in words) ([2]; two volunteers, from day 1 to day 28 of AKG tablets): increase
effect on concentration of HDL (in words) [3]: increase
